According to patent publication US20200255487A1, “A Cell-Based Seeding Assay for Huntingtin Aggregation” (THE REGENTS OF THE UNIVERSITY OF CALIFORNIA, priority 2017, published 2020):

Test system: HTT-ΔN17-46Q-GFP
Test: cell-based HTT seeding assay (ΔN17-1E cells)
Set-up: species or system human
Conditions: for induction of intracellular HTT-ΔN17-46Q-GFP aggregation by extracellularly applied seeds: ΔN17-1E (HEK293) cells, substance applied as seed, FIG. 4
Text: Described herein is the development of a cell-based HTT seeding assay. A DNA construct encoding Exon1 of mutant human HTT with a 46 polyQ repeat was designed (FIG. 1C). This mutant HTT was engineered to delete amino acid residues 2-16 and was fused with a green fluorescent protein (GFP) at its C-terminus, named HTT-ΔN17-46Q-GFP hereafter. The HTT-ΔN17-46Q-GFP was then cloned into a pcDNA3 vector and transfected into HEK293 cells. Clones of stably transfected cells expressing HTT-ΔN17-46Q-GFP were selected to generate individual cell lines. Expression of the transgene in the cell lines was characterized to confirm its morphology, expression level and subcellular localization. Line 1E, named ΔN17-1E cells, was selected based on it moderate transgene expression with minimal protein aggregates at the baseline. Based on this cell line, a cell-based HTT seeding assay was developed. Extracellular application of preformed HTT aggregates or biosamples from HD patients as “seeds”, to ΔN17-1E cells could induce intracellular aggregation of HTT-ΔN17-46Q-GFP proteins (FIG. 1 through FIG. 3). This seeding-induced aggregation event is similar to in vitro HTT aggregation, which preformed aggregates, or seeds, nucleates and facilitates the aggregation of HTT exon 1 monomers. Moreover, this activity is specific to utilizing aggregates of polyQ proteins since neither aggregates of β-amyloid and Tau nor biosamples from AD and PD patients could elicit HTT-ΔN17-46Q-GFP aggregation (FIG. 4). The level of induced aggregates positively correlates with the amount of recombinant seeds added. Importantly, the seedability of the biosamples also correlates with the disease stage of the patients. Currently, the assay has been optimized to be performed in a high-throughput format, making it more capable with large quantity of samples. Thus, this cell-based seeding assay could be extremely useful for detecting seedible species in the biosamples, which is shown by us to increase as the disease progressing, and thus could be used as a biomarker for HD diagnosis and clinical trials, as well as for drug discovery.

DNAJB6: DNAJB6 of the Hsp40 family, overexpressed in ΔN17 cells by transit transfection
HTT-ΔN17-46Q-GFP aggregation induced by HD CSF, with overexpression (ΔN17 cells, overexpression by transit transfection, induced by HD CSF, FIG. 10): dramatically reduced | HTT-ΔN17-46Q-GFP aggregation induced by preformed mHTT-exon1 seeds, with overexpression (ΔN17 cells, overexpression by transit transfection, induced by preformed mHTT-exon1 seeds, FIG. 10): dramatically reduced

fibrillar Aβ: fibrillar Aβ used as non-HTT seed control [reference compound]
induction of intracellular HTT-ΔN17-46Q-GFP aggregation by extracellularly applied seeds: did not elicit the aggregation

phosphorylated tau: phosphorylated tau used as non-HTT seed control [reference compound]
induction of intracellular HTT-ΔN17-46Q-GFP aggregation by extracellularly applied seeds: did not elicit the aggregation
